Assay: Anthocyanin survival of control treatments at pH 2.5 (uHPLC AUC 500-520 nm)
Format: physicochemical
Details: pH 2.5 acidified water, no pyruvic acid, 25° C., day 31
Description: FIG. 10: Pyranoanthocyanin yield for anthocyanins (500 μM) subjected to pyruvic acid treatment (×100 M ratio) and anthocyanin survival of control treatments at pH 2.5 acidified water at day 7, 14, and 31. Yield defined as (AUC500-520 nm of PACN at tn/AUC500-520 nm of ACN @t0)*100. Survival defined as (AUC500-520 nm of ACN at tn/AUC500-520 nm of ACN @ t0)*100. Values shown are means (n=3) and bars represent standard deviation.
A uHPLC system (Shimadzu Nexera-i LC-2040C, Maryland, U.S.) coupled with tandem MS (Shimadzu LCMS-8040, Maryland, U.S.) was used in evaluating initial anthocyanin purity and monitoring changes in anthocyanins with and without pyruvic acid treatment over time. A 0.4 mL/min flow rate was used on a Pinnacle DB (Restek Corporation, Bellefonte, Pa.) C18 Column (1.9 μm particle size, 50×2.1 mm length). The column oven was set at 40° C. The following gradient of solvent A (4.5% formic acid) and B (100% acetonitrile) was used: 0% B for the first minute, ramped to 15% B by 10 min. This method was effective for separation of the formed pyranoanthocyanin from anthocyanin for all isolates except cy3rut which coeluted with the formed pyranoanthocyanin. This was observed through MS-MS data. […]
Quantification of pigments was conducted on day 0, 3, 7, 14, and 31 using a standard curve of cyanidin-3-glucoside (Sigma Aldrich, St. Louis, Mo., U.S.) run under the same conditions used for isolates. Molar absorptivities of anthocyanins and carboxypyranoanthocyanidins have been reported as being relatively similar and were thought to provide a basis of confidence in using AUC500-520 nm as a quantitative measure of pyranoanthocyanin yield.
Prior to dilution, the concentrations of the isolated pigment extracts were determined by the pH differential method for subsequent dilution to known concentrations. The isolates were then diluted to 500 μM (expressed as Cyanidin-3-glucoside equivalents) in pH 2.5 deionized water (previously adjusted with HCl) which contained 0.1% potassium sorbate (w/v) and 0.1% sodium benzoate (w/v) to function as preservative agents during storage. […]

Compound: OC[C@H]1O[C@@H](Oc2cc3c(O)cc(O)cc3[o+]c2-c2ccc(O)c(O)c2)[C@H](O)[C@@H](O)[C@H]1O [Cyanidin-3-galactoside, cyanidin-3-galactoside]
- anthocyanin survival of control treatment: 84%

Reference: US20180346731A1, “Formation of Stable Pyranoanthocyanins, and Uses Thereof as Sources of Natural Color” (Ohio State Innovation Foundation, priority 2017, published 2018)
